Laboratory results taken from ChEMBL document CHEMBL1201862, “PubChem BioAssay data set” (2004).
Calls of active or inactive are those of the source.

Columns and labels:
[1] = Late-stage results from the probe development effort to identify antagonists of arginine vasopressin receptor 1a (AVPR1a): luminescence-based cell-based dose response counterscreen assay to determine cytotoxicity of the test compound.; assay type: functional
[2] = Late-stage results from the probe development effort to identify antagonists of arginine vasopressin receptor 1a (AVPR1a): fluorescence-based cell-based dose response AVPR1a inhibition assay.; assay type: functional
[3] = Late-stage results from the probe development effort to identify antagonists of arginine vasopressin receptor 1a (AVPR1a): fluorescence-based cell-based dose response OXTR inhibition counterscreen assay.; assay type: functional
Vasopressin V2 receptor = Vasopressin V2 receptor (Homo sapiens, UniProt P30518); experiment: Late-stage results from the probe development effort to identify antagonists of arginine vasopressin receptor 1a (AVPR1a): fluorescence-based cell-based dose response AVPR2 inhibition counterscreen assay.; assay type: functional
Vasopressin V1b receptor = Vasopressin V1b receptor (Homo sapiens, UniProt P47901); experiment: Late-stage results from the probe development effort to identify antagonists of arginine vasopressin receptor 1a (AVPR1a): fluorescence-based cell-based dose response AVPR1b inhibition counterscreen assay.; assay type: functional
Transthyretin = Transthyretin (Homo sapiens, UniProt P02766); experiment: Luminescence-based cell-based high throughput dose response assay to identify activators of Transthyretin (TTR) transcription.; assay type: functional
[4] = viability loss in A549 lung cells – cell-based, 24 h, CellTiter-Glo luminescence, cherry-picks, cytotoxicity control, dose response (AID 1053115); assay type: functional; settings: A549, 24 h
[5] = Dd2 parasite growth inhibition in erythrocytes – SYBR Green, dry powder samples, set 4, dose response (AID 1159572); assay type: functional, cell-based
[6] = antimalarial activity against Dd2 parasites – SYBR Green fluorescence, erythrocytes, dry powder, set 2, dose response (AID 1159574); assay type: functional, cell-based
[7] = glucagon-like peptide-1 release potency in STC-1, concentration-response, half-maximal inhibitory concentration in the STC-1 line (AID 1117345); assay type: functional, cell-based
[8] = Potency on glucagon-like peptide 1 release, dose-response in NCI-H716 cell line, half maximal inhibitory concentration (AID 1117344); assay type: functional, cell-based
[9] = viability inhibitors of stage V gametocytes – luminescence, dose response (AID 1117278); assay type: functional, cell-based;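 further: gametocytes exposed to compound for 24 hours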
[10] = viability loss in human Jurkat cells – cell-based, luminescence, cytotoxicity control for P. falciparum gametocyte viability project, dose response (AID 1117277); assay type: functional;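 further: potency reflects loss of cellular ATP meaning fewer viable cells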

Chain of Vasopressin V2 receptor (P30518 whole entry): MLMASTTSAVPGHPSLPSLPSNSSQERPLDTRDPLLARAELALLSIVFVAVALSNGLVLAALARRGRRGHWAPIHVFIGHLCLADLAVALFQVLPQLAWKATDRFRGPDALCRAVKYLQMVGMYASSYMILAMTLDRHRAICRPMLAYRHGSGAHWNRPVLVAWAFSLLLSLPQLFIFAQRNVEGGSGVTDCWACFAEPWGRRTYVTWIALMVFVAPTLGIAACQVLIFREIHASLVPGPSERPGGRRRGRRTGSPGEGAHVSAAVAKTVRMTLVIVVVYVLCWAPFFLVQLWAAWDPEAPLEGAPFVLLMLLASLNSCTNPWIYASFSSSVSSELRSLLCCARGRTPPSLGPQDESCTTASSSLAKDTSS
Chain of Vasopressin V1b receptor (P47901 whole entry): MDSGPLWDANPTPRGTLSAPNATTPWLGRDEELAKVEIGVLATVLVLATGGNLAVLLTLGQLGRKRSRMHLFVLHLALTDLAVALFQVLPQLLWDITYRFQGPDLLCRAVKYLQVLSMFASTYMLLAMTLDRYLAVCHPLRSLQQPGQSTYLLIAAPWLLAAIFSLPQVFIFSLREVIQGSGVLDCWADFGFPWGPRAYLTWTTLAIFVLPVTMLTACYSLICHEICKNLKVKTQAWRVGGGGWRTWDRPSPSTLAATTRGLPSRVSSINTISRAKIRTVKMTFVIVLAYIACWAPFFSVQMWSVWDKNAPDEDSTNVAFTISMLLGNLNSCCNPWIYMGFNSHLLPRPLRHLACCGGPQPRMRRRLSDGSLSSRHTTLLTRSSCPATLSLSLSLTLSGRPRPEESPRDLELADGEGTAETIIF

## O=C(C1CCN(c2ccc(Cl)cn2)CC1)N(CC1CC1)c1ccc(Cl)cc1
[1]
  CC50: > 25 µM (inactive)
[2]
  IC50: 0.04 µM (active)
[3]
  IC50: > 50 µM (inactive)
Vasopressin V2 receptor
  IC50: > 50 µM (inactive)
Vasopressin V1b receptor
  IC50: > 50 µM (active)

## Cn1ncc(Br)c1C(=O)N1CCc2ccccc21
Transthyretin
  EC50: > 167 µM (inactive)

## CCCNC(=O)N(C)C[C@@H]1Oc2ncc(C#CC3CCCCC3)cc2C(=O)N([C@H](C)CO)C[C@@H]1C
[4]
  AC50: 59.7 µM (active)

## COc1ccc(NC(=O)N2CCC3(CC2)CN(C(C)=O)[C@@H](CO)c2[nH]c4cc(OC)ccc4c23)cc1
[5]
  AC50: 1.73 µM (active)

## COc1cccc(C#Cc2ccc([C@H]3[C@H](CO)N4C(=O)CN(C(=O)Cc5ccccc5)C[C@@H]34)cc2)c1
[6]
  AC50: 10.5 µM (active)

## Cc1cc(N)c2cc(NC(=O)Nc3ccc4nc(C)cc(N)c4c3)ccc2n1
[7]
  IC50: > 40 µM (inactive)
[8]
  IC50: 34.2 µM (inactive)

## c1ccc(CNC2=NCCS2)cc1
[9]
  IC50: > 109 µM (inactive)
[10]
  IC50: > 83.2 µM (inactive)
